From patent publication US10092530B2, “Method for inhibiting melanogenesis and promoting collagen production and wound healing” (TCI Co., Ltd, priority 2015, dated 2018)

Key:
Type in all cases: cell-based
[1] = system: MITF gene expression; experiment: MITF gene expression by RT-PCR in human dermal fibroblasts; details: 2X-48 group: 17.5 ng/mL, 48 hours
Method: (§1) Human dermal fibroblasts (CCD-966SK cells, former ATCC CRL-1881), a type of adherent skin cells, were cultured in minimum essential medium supplemented with 10% (v/v) fetal bovine serum (FBS), 0.37% (w/v) sodium bicarbonate, 0.1 mM non-essential amino acid solution (NEAA), 1 mM sodium pyruvate, 0.03% (w/v) […], 100 units/ml penicillin and 100 μg/ml streptomycin at 37° C. under humidified atmosphere (relative humidity of 80%) containing 5% CO2. During the culture, the medium was renewed every two days. When the cultured cells reached confluence and formed a monolayer, which was examined by an inverted microscope, a subculture was carried out.
Therefore, the inventors of the present application studied the inhibitory effect of the compound of formula (I) on MITF gene expression in EXAMPLE 3. […]

[2] = system: MMP-9 gene expression; experiment: MMP-9 gene expression by RT-PCR in human dermal fibroblasts; details: 1X-24 group: 8.75 ng/mL, 24 hours
Method: as §1
Therefore, the inventors of the present application studied the inhibitory effect of the compound of formula (I) on MMP-9 gene expression in EXAMPLE 2. […]

[3] = system: mouse melanoma cell line B16F10; experiment: Melanin quantification assay in mouse melanoma cell line B16F10; details: for decreased melanin content compared with the CTL group: 48 hours, B16F10
Method: Therefore, the inventors of the present application studied the inhibitory effect of the compound of formula (I) on MITF gene expression in EXAMPLE 3. The following five groups were compared in this example: • (1) Control group (CTL group): incubating a culture of human dermal fibroblasts for a predetermined time; • (2) One dose-24 hours group (1X-24 group): adding one dose of the compound of the present invention to a culture of human dermal fibroblasts and then examining the culture after an incubation of 24 hours, wherein the term “one dose” refers to 8.75 ng/mL of the compound of formula (I) in DMSO; • (3) One dose-48 hours group (1X-48 group): adding one dose of the compound of the present invention to a culture of human dermal fibroblasts and then examining the culture after an incubation of 48 hours; • (4) Double dose-24 hours group (2X-24 group): adding a double dose of the compound of the present invention to a culture of human dermal fibroblasts and then examining the culture after an incubation of 24 hours, wherein the term “double dose” refers to 17.5 ng/mL of the compound of formula (I); and • (5) Double dose-48 hours group (2X-48 group): adding a double dose of the compound of the present invention to a culture of human dermal fibroblasts and then examining the culture after an incubation of 48 hours.
In addition, a melanin quantification assay was performed to examine the change of melanin content in mouse melanoma cell line B16F10 (ATCC CRL-6475) upon addition of the compound of the present invention. The treatment of the cells was the same as described above. […] Thus, it is concluded that the compound at a concentration between 8 ng/ml and 18 ng/ml causes a decrease of at least 20% in melanin formation in mouse melanoma cells.

[4] = system: human dermal fibroblasts; experiment: Collagen secretion assay (Sircol) in human dermal fibroblasts; details: for increase in collagen secretion compared with the CTL group: 24 hours
[5] = system: human dermal fibroblasts; experiment: Wound repair/closure of an incised wound area in a culture of human dermal fibroblasts; details: for percentage of wound repair/closure relative to the CTL group: 18 hours
Method: as §1
Due to the importance of wound healing, the inventors of the present application studied the promoting effect of the compound of formula (I) on wound healing of skin in EXAMPLE 4. The following four groups were compared in this example: • (1) Control group (CTL group): creating an incised wound area in a culture of human dermal fibroblasts and then incubating and examining the culture for 18 hours; • (2) One dose-18 hours group (1X-18 group): creating an incised wound area in a culture of human dermal fibroblasts and adding one dose of the compound of the present invention to the culture; and then examining changes in the wound area of human dermal fibroblasts after an incubation of 18 hours, wherein the term “one dose” refers to 8.75 ng/mL of the compound of formula (I) in DMSO; • (3) Double dose-18 hours group (2X-18 group): creating an incised wound area in a culture of human dermal fibroblasts and adding one dose of the compound of the present invention to the culture; and then examining changes in the wound area of human dermal fibroblasts after an incubation of 18 hours, wherein the term “double dose” refers to 17.5 ng/mL of the compound of formula (I); and • (4) Fourfold dose-18 hours group (4X-18 group): creating an incised wound area in a culture of human dermal fibroblasts and adding one dose of the compound of the present invention to the culture; and then examining changes in the wound area of human dermal fibroblasts after an incubation of 18 hours, wherein the term “fourfold dose” refers to 35 ng/mL of the compound of formula (I).
According to FIG. 8, a constant number of fibrocytes (about 1-2×10^5 cells) were produced in each of the CTL, 1X-18, 2X-18, and 4X-18 groups to repair and close the wound at 18 hours after wounding.
In addition, a percentage of wound repair/closure in the wound area of human dermal fibroblasts was determined for the above four groups by analyzing the surface area change of the wound area in FIG. 8 using the software ImageJ. […]

C=C1CC[C@@H](C)C2C[C@@H](O)[C@@H](C(C)C(=O)O)CC12 (stereo partly drawn) [compound of formula (I)]
inhibition of MITF gene expression compared with the CTL group [1]: about 50%
inhibition of MMP-9 gene expression compared with the CTL group [2]: about 80%
decreased melanin content compared with the CTL group ([3]; 1X-48 group: 8.75 ng/mL): 20%
decreased melanin content compared with the CTL group ([3]; 2X-48 group: 17.5 ng/mL): 40%
decrease in melanin formation ([3]; concentration between 8 ng/ml and 18 ng/ml, mouse melanoma cells): at least 20%
increase in collagen secretion compared with the CTL group ([4]; 1X-24 group: 8.75 ng/mL): 20%
increase in collagen secretion compared with the CTL group ([4]; 2X-24 group: 17.5 ng/mL): 30%
increase in collagen secretion ([4]; concentration between 8 ng/ml and 18 ng/ml): at least 20%
degree of repair/closure in the wound area compared with the CTL group (micrographs) ([5]; 1X-18, 2X-18 and 4X-18 groups (8.75, 17.5, 35 ng/mL), 18 hours after wounding): significantly higher degree of repair/closure
percentage of wound repair/closure relative to the CTL group ([5]; 1X-18 group: 8.75 ng/mL): 1.21 fold
percentage of wound repair/closure relative to the CTL group ([5]; 2X-18 group: 17.5 ng/mL): 1.4 fold
percentage of wound repair/closure relative to the CTL group ([5]; 4X-18 group: 35 ng/mL): 1.5 fold
